Test results from PubChem BioAssay AID248 (DTP/NCI, 2004).
Where “and” joins values, the source holds several entries; their conditions need not be identical. Equal entries are not always repeated. Toxic doses and inconclusive results are not listed. Cut-off read from the data, not from the text of the source: active = T/C of 150% or more; inactive = T/C below 125%.

System: L1210 leukemia ip in BDF1 mice, survival T/C
Assay: NCI In Vivo Anticancer Drug Screen. Data for tumor model L1210 Leukemia (intraperitoneal) in B6D2F1 (BDF1) mice
Conditions: endpoint: mean survival time, higher = longer survival
Outline: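 Tumor was transplanted into mice, which were then dosed with test compound or vehicle alone. Survival was recorded for each group, and the treated figure was expressed relative to the control figure.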

[1] = dose: 100.0 mg/kg/injection, schedule: Q01DX001 (ip), vehicle: other
[2] = dose: 200.0 mg/kg/injection, schedule: Q01DX001 (ip), vehicle: other
[3] = dose: 400.0 mg/kg/injection, schedule: Q01DX001 (ip), vehicle: other
[4] = dose: 100.0 mg/kg/injection, schedule: Q04DX003 (ip), vehicle: saline with Tween-80
[5] = dose: 200.0 mg/kg/injection, schedule: Q04DX003 (ip), vehicle: saline with Tween-80
[6] = dose: 100.0 mg/kg/injection, schedule: Q01DX009 (ip), vehicle: saline with Tween-80
[7] = dose: 200.0 mg/kg/injection, schedule: Q01DX009 (ip), vehicle: saline with Tween-80
[8] = dose: 400.0 mg/kg/injection, schedule: Q01DX009 (ip), vehicle: saline with Tween-80
[9] = dose: 400.0 mg/kg/injection, schedule: Q04DX003 (ip), vehicle: saline with Tween-80
[10] = dose: 100.0 mg/kg/injection, schedule: Q01DX001 (ip), vehicle: carboxymethylcellulose (CMC)
[11] = dose: 200.0 mg/kg/injection, schedule: Q01DX001 (ip), vehicle: carboxymethylcellulose (CMC)
[12] = dose: 400.0 mg/kg/injection, schedule: Q01DX001 (ip), vehicle: carboxymethylcellulose (CMC)
[13] = dose: 100.0 mg/kg/injection, schedule: Q01DX001 (ip), vehicle: saline with Tween-80
[14] = dose: 200.0 mg/kg/injection, schedule: Q01DX001 (ip), vehicle: saline with Tween-80
[15] = dose: 100.0 mg/kg/injection, schedule: Q01DX009 (ip), vehicle: Klucel (hydroxypropylcellulose) (HPC)
[16] = dose: 100.0 mg/kg/injection, schedule: Q04DX003 (ip), vehicle: Klucel (hydroxypropylcellulose) (HPC)
[17] = dose: 200.0 mg/kg/injection, schedule: Q01DX009 (ip), vehicle: Klucel (hydroxypropylcellulose) (HPC)
[18] = dose: 200.0 mg/kg/injection, schedule: Q04DX003 (ip), vehicle: Klucel (hydroxypropylcellulose) (HPC)
[19] = dose: 400.0 mg/kg/injection, schedule: Q04DX003 (ip), vehicle: Klucel (hydroxypropylcellulose) (HPC)

Measured: T/C

CCc1nnc2cc(C)ccn12
inactive: [1] 98 % of control | dose: 100.0 mg/kg/injection, schedule: Q04DX003 (ip), vehicle: other 98 % of control | [2] 107 % of control | dose: 200.0 mg/kg/injection, schedule: Q04DX003 (ip), vehicle: other 98 % of control | [3] 107 % of control

COc1c(O)cc2c(c1OC)-c1ccc(OC)c(=O)cc1C(NC=O)CC2 (stereo unspecified)
inactive: [4] 116 % of control | [5] 93 % of control

Cc1ccccc1NC(=O)N(C)N
inactive: dose: 75.0 mg/kg/injection, schedule: Q01DX001 (ip), vehicle: carboxymethylcellulose (CMC) 93 % of control

CCc1ccc(/C(C#N)=C/c2ccc(N(C)CCC#N)cc2)cc1
inactive: dose: 12.5 mg/kg/injection, schedule: Q01DX009 (ip), vehicle: Klucel (hydroxypropylcellulose) (HPC) 95 % of control | dose: 25.0 mg/kg/injection, schedule: Q01DX009 (ip), vehicle: Klucel (hydroxypropylcellulose) (HPC) 95 % of control | dose: 50.0 mg/kg/injection, schedule: Q01DX009 (ip), vehicle: Klucel (hydroxypropylcellulose) (HPC) 94 % of control

CCCCC#CC(O)(C(=O)OC)c1ccccc1 (stereo unspecified)
inactive: [1] 107 % of control | [2] 110 % of control | [3] 94 % of control

CC(OC(=O)Nc1ccccc1)C(=O)O (stereo unspecified)
inactive: [6] 92 % of control | [4] 96 % of control | [7] 92 % of control | [5] 101 % of control | [8] 95 % of control | [9] 96 % of control

O=C(O)c1ccc(Br)cc1O
inactive: [10] 98 % of control | [11] 104 % of control | [12] 95 % of control

NC(Cc1c[nH]c2ccccc12)C(=O)O (stereo unspecified)
inactive: [13] 95 % of control | dose: 100.0 mg/kg/injection, schedule: Q01DX009 (ip), vehicle: saline 100 % of control | [14] 98 % of control | dose: 200.0 mg/kg/injection, schedule: Q01DX009 (ip), vehicle: saline 94 % of control | dose: 300.0 mg/kg/injection, schedule: Q01DX001 (ip), vehicle: saline with Tween-80 92 % of control | dose: 400.0 mg/kg/injection, schedule: Q01DX009 (ip), vehicle: saline 94 % of control | dose: 800.0 mg/kg/injection, schedule: Q01DX009 (ip), vehicle: saline 94 % of control

CC(=O)O[C@H]1[C@H]2O[C@]23[C@@H]2CC[C@@H]4C[C@@H](O)CC[C@]4(C)[C@H]2CC[C@]3(C)[C@H]1c1ccc(=O)oc1
inactive: dose: 3.75 mg/kg/injection, schedule: Q01DX009 (ip), vehicle: Klucel (hydroxypropylcellulose) (HPC) 110 % of control | dose: 5.0 mg/kg/injection, schedule: Q01DX001 (ip), vehicle: other 103 % of control | dose: 7.5 mg/kg/injection, schedule: Q01DX009 (ip), vehicle: Klucel (hydroxypropylcellulose) (HPC) 98 % of control | dose: 10.0 mg/kg/injection, schedule: Q01DX001 (ip), vehicle: other 103 % of control | dose: 15.0 mg/kg/injection, schedule: Q04DX003 (ip), vehicle: Klucel (hydroxypropylcellulose) (HPC) 98 % of control | dose: 20.0 mg/kg/injection, schedule: Q01DX001 (ip), vehicle: other 97 % of control

O=C(O)c1ccc(C(Cl)C(Cl)(Cl)Cl)cc1O (stereo unspecified)
inactive: [10] 92 % of control | [11] 94 % of control | [12] 96 % of control

CCCCOc1ccc(C=Nc2ccc(CC)cc2)cc1
inactive: [6] 94 % of control | [7] 102 % of control | [8] 97 % of control

S=c1cc[nH]c2n[nH]nc12
inactive: [13] 101 % of control | [4] 104 % of control | [14] 101 % of control | [5] 101 % of control | dose: 400.0 mg/kg/injection, schedule: Q01DX001 (ip), vehicle: saline with Tween-80 103 % of control | [9] 98 % of control

CCCCNC(C)C1(O)Cc2c(O)c3c(c(O)c2C(OC2CC(N)C(O)C(C)O2)C1)C(=O)c1c(OC)cccc1C3=O (stereo unspecified)
inactive: dose: 5.0 mg/kg/injection, schedule: Q01DX009 (ip), vehicle: water 100 % of control | dose: 10.0 mg/kg/injection, schedule: Q01DX009 (ip), vehicle: water 100 % of control | dose: 20.0 mg/kg/injection, schedule: Q01DX009 (ip), vehicle: water 92 % of control | dose: 80.0 mg/kg/injection, schedule: Q01DX009 (ip), vehicle: water 104 % of control

CC(CC(CCC(=O)O)(c1ccccc1)c1ccccc1)N(C)C (stereo unspecified)
inactive: [10] 105 % of control | [11] 97 % of control

Cc1ccc2c(c1)C1CCC3(CC1OC2(C)C)OC(C)(C)c1cc(C)ccc13 (stereo unspecified)
inactive: [15] 95 % of control | [16] 105 % of control | [17] 89 % of control | [18] 95 % of control | [19] 95 % of control

OCC1CC2CC(O)C1C2 (stereo unspecified)
inactive: dose: 75.0 mg/kg/injection, schedule: Q01DX001 (ip), vehicle: saline 100 % of control and 110 % of control | dose: 150.0 mg/kg/injection, schedule: Q01DX001 (ip), vehicle: saline 108 % of control

CC1=CC(C)(C)NC(=S)N1C
inactive: dose: 6.25 mg/kg/injection, schedule: Q04DX003 (ip), vehicle: saline with Tween-80 96 % of control | dose: 12.5 mg/kg/injection, schedule: Q04DX003 (ip), vehicle: saline with Tween-80 95 % of control | dose: 25.0 mg/kg/injection, schedule: Q04DX003 (ip), vehicle: saline with Tween-80 95 % of control | dose: 166.0 mg/kg/injection, schedule: Q01DX Z (ip), vehicle: methylcellulose (MC) 87 % of control

Cc1cccc(OCC(O)CN(Cc2ccsc2)c2ccccn2)c1 (stereo unspecified)
inactive: dose: 100.0 mg/kg/injection, schedule: Q04DX002 (ip), vehicle: Klucel (hydroxypropylcellulose) (HPC) 94 % of control | dose: 200.0 mg/kg/injection, schedule: Q04DX002 (ip), vehicle: Klucel (hydroxypropylcellulose) (HPC) 106 % of control

FC1C(F)(F)C(F)(F)C(F)(F)C(F)(F)C1(F)F
inactive: dose: 50.0 mg/kg/injection, schedule: Q01DX001 (ip), vehicle: carboxymethylcellulose (CMC) 97 % of control | [10] 97 % of control | [11] 107 % of control | [12] 96 % of control

Cc1ccc2c(ccc3nnc(C)n32)c1
inactive: dose: 50.0 mg/kg/injection, schedule: Q01DX001 (ip), vehicle: saline 109 % of control | dose: 100.0 mg/kg/injection, schedule: Q01DX001 (ip), vehicle: saline 103 % of control

O=S1(=O)CCCC1C(O)c1ccccc1 (stereo unspecified)
inactive: [16] 94 % of control and 98 % of control | [18] 105 % of control and 102 % of control | [19] 105 % of control and 94 % of control

CCN(CC)CCC(CNC(=O)CN(CC)CC)(c1cccc2ccccc12)C(C)C (stereo unspecified)
inactive: dose: 12.5 mg/kg/injection, schedule: Q01DX009 (ip), vehicle: saline 98 % of control | dose: 12.5 mg/kg/injection, schedule: Q04DX003 (ip), vehicle: saline 94 % of control | dose: 25.0 mg/kg/injection, schedule: Q01DX009 (ip), vehicle: saline 93 % of control | dose: 25.0 mg/kg/injection, schedule: Q04DX003 (ip), vehicle: saline 110 % of control | dose: 50.0 mg/kg/injection, schedule: Q01DX009 (ip), vehicle: saline 90 % of control | dose: 50.0 mg/kg/injection, schedule: Q04DX003 (ip), vehicle: saline 104 % of control

CCN(Cc1ccccc1)C(=S)NC1CCCCC1
inactive: dose: 100.0 mg/kg/injection, schedule: Q04DX002 (ip), vehicle: saline 96 % of control | dose: 200.0 mg/kg/injection, schedule: Q04DX002 (ip), vehicle: saline 96 % of control | dose: 400.0 mg/kg/injection, schedule: Q04DX002 (ip), vehicle: saline 100 % of control

O=C1C(n2ccc(=O)[nH]c2=O)CCN1CCOCc1ccccc1 (stereo unspecified)
inactive: [15] 105 % of control | [17] 105 % of control | dose: 400.0 mg/kg/injection, schedule: Q01DX009 (ip), vehicle: Klucel (hydroxypropylcellulose) (HPC) 100 % of control

[CH3][Sb]([CH3])[S]C1OC(CO)C(O)C(O)C1O (stereo unspecified)
inactive: dose: 12.5 mg/kg/injection, schedule: Q04DX003 (ip), vehicle: Klucel (hydroxypropylcellulose) (HPC) 99 % of control | dose: 25.0 mg/kg/injection, schedule: Q04DX003 (ip), vehicle: Klucel (hydroxypropylcellulose) (HPC) 89 % of control | dose: 50.0 mg/kg/injection, schedule: Q04DX003 (ip), vehicle: Klucel (hydroxypropylcellulose) (HPC) 95 % of control
